pEC50, pKi: −log10 of the molar value. The source made the active and inactive calls. The rule behind the calls is not given here.
How the values were obtained:
[1] = target: Metabotropic glutamate receptor 2 (Rattus norvegicus, UniProt P31421); test: Positive allosteric modulation of rat mGluR2 expressed in HEK293 cells co-expressing Galpha15 G protein assessed as increase in glutamate-induced intracellular calcium release by FLIPR assay; assay type: functional, cell-based
[2] = system: Mus musculus; test: Antipsychotic activity in sc dosed CD1 mouse assessed as inhibition of mescaline-induced scratching behavioral response administered 20 mins before mescalin challenge measured for 12 mins; assay type: functional
[3] = target: Metabotropic glutamate receptor 1 (Homo sapiens) (UniProt Q13255); test: Agonist activity at mGlu1 receptor at up to 10 uM; assay type: functional
Sequence of Metabotropic glutamate receptor 1 (Homo sapiens) (Q13255 19-1194 limits assumed): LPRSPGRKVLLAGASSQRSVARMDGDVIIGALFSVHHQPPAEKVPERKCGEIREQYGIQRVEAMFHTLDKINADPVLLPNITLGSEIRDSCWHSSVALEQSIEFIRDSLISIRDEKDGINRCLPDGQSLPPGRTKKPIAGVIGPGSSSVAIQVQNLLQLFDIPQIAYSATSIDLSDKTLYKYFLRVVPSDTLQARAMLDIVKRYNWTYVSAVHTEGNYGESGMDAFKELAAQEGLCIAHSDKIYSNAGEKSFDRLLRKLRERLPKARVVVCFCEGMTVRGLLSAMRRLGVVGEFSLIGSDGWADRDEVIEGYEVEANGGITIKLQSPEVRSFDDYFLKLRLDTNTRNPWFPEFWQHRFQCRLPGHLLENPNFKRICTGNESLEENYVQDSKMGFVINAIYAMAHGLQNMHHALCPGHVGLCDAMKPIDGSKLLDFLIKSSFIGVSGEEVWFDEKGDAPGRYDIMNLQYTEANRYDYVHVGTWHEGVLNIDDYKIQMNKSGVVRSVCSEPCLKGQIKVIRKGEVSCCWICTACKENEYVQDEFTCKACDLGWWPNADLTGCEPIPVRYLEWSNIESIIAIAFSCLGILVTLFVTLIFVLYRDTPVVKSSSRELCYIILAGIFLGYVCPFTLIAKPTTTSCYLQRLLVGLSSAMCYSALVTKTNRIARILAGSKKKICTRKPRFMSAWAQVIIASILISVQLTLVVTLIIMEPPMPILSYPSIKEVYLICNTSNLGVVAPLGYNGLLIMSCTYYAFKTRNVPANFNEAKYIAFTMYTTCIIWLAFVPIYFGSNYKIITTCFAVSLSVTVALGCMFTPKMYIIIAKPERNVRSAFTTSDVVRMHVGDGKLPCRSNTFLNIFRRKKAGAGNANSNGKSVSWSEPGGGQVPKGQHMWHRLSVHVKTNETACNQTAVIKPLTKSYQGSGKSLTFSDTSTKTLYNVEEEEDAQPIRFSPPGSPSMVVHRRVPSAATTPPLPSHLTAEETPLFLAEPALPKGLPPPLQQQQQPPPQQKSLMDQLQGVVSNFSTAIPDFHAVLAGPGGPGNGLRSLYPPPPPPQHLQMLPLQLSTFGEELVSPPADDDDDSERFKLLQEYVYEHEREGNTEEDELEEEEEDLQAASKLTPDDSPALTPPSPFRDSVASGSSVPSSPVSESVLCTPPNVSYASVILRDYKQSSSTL

[4] = system: Mus musculus; test: Antipsychotic activity in sc dosed mouse assessed as inhibition of methamphetamine-induced hyperlocomotion measured for 60 mins; assay type: functional
[5] = Ratio of drug level in brain to plasma in rat at 3.2 mg/kg, sc after 60 mins; assay type: ADME, organism-based; set-up: dose 3.2 mg/kg, route subcutaneous
[6] = Oral bioavailability in rat at 3 mg/kg; assay type: ADME, organism-based; conditions: in vivo
[7] = Permeability from apical to basolateral side of MDR1 transfected MDCK cells at 1 uM; assay type: ADME, cell-based, Canis lupus familiaris; conditions: dog, read-out: permeability
[8] = Cmax in rat brain at 3 mg/kg, po; assay type: ADME, organism-based; set-up: dose 3 mg/kg, route oral
[9] = Ratio of drug level in brain to plasma in mouse at 10 mg/kg, sc after 60 mins; assay type: ADME, organism-based; set-up: dose 10 mg/kg, route subcutaneous
[10] = system: Brain; test: Fraction unbound in rat brain by LC-MS/MS assay; assay type: ADME, tissue-based
[11] = Plasma clearance in rat at 0.5 mg/kg, iv; assay type: ADME, organism-based; set-up: dose 0.5 mg/kg, route intravenous
[12] = target: D(2) dopamine receptor (Rattus norvegicus, UniProt P61169); test: Displacement of [3H]spiperone from dopamine D2 receptor in rat corpus striatum by beta plate scintillation counting; assay type: tissue-based
Sequence of D(2) dopamine receptor (Rattus norvegicus, UniProt P61169) (P61169 whole entry): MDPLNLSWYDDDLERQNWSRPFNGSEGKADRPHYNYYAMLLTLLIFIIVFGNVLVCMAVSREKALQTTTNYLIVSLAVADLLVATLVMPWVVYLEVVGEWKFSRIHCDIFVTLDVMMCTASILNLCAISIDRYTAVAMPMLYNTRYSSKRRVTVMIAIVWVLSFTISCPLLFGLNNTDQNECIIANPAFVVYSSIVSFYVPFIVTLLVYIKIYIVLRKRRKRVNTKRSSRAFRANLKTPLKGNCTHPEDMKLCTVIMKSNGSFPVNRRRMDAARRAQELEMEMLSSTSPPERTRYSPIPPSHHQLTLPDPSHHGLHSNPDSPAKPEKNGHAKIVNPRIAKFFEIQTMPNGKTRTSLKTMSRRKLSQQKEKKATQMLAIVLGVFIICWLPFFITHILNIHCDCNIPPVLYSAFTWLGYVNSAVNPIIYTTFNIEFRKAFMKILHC

[13] = target: Metabotropic glutamate receptor 5 (Homo sapiens) (UniProt P41594); test: Antagonist activity at mGlu5 receptor at up to 10 uM; assay type: functional
Sequence of Metabotropic glutamate receptor 5 (Homo sapiens) (P41594 21-1212 limits assumed): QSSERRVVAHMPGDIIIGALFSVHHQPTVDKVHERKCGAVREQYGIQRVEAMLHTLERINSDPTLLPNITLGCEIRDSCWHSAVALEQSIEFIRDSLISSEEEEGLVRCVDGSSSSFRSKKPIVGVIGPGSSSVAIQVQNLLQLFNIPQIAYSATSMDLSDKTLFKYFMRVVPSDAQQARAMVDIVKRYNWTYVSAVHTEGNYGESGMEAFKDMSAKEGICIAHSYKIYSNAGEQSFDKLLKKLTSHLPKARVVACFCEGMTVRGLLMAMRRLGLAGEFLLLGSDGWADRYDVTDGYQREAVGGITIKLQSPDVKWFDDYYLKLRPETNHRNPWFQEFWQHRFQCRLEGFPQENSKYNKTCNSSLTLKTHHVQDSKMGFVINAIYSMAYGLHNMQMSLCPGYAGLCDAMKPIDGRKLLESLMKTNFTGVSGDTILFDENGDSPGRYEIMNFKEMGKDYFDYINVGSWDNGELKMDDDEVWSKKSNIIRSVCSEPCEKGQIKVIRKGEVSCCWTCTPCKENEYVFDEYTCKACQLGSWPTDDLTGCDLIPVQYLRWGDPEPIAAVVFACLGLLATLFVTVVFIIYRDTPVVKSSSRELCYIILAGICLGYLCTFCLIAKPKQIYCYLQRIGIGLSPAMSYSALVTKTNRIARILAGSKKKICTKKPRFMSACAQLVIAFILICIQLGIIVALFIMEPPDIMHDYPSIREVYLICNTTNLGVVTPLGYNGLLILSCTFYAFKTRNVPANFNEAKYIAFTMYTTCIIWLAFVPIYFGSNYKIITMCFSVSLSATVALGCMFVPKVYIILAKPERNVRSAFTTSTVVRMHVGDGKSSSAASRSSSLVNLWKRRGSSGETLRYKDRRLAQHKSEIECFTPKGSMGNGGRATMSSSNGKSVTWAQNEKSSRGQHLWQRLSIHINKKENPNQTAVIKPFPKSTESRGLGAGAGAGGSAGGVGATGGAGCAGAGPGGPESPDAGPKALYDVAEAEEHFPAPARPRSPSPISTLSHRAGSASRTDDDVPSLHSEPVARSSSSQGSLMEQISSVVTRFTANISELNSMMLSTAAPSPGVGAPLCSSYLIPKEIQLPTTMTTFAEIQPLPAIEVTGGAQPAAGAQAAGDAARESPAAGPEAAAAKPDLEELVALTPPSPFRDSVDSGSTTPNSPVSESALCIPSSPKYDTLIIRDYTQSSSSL

[14] = target: Metabotropic glutamate receptor 1 (Homo sapiens) (UniProt Q13255); test: Antagonist activity at mGlu1 receptor at up to 10 uM; assay type: functional
[15] = target: Metabotropic glutamate receptor 5 (Homo sapiens) (UniProt P41594); test: Positive allosteric modulation of mGlu5 receptor at up to 10 uM
[16] = target: Metabotropic glutamate receptor 5 (Homo sapiens) (UniProt P41594); test: Agonist activity at mGlu5 receptor at up to 10 uM; assay type: functional
[17] = system: MDCK; test: Efflux ratio of permeability from […] of MDR1 transfected MDCK cells at 1 uM; assay type: ADME, cell-based, Canis lupus familiaris; conditions: dog
[18] = Cmax in rat brain at 10 mg/kg, po; assay type: ADME, organism-based; set-up: dose 10 mg/kg, route oral
[19] = system: HEK293; test: Selectivity ratio of Ki for dopamine D2 receptor in rat corpus striatum to EC50 for rat mGluR2 expressed in HEK293 cells; assay type: cell-based
[20] = Plasma clearance in rat at 1 mg/kg, iv; assay type: ADME, organism-based; set-up: dose 1 mg/kg, route intravenous
[21] = target: Metabotropic glutamate receptor 2 (Homo sapiens, UniProt Q14416); test: Positive allosteric modulation of human mGluR2 expressed in HEK293 cells co-expressing Galpha15 G protein assessed as increase in glutamate-induced intracellular calcium release by FLIPR assay; assay type: functional, cell-based
[22] = Oral bioavailability in rat at 10 mg/kg; assay type: ADME, organism-based; conditions: in vivo
[23] = target: Histamine H1 receptor (Homo sapiens) (UniProt P35367); test: Binding affinity to histamine H1 receptor at 3.16 uM
Sequence of Histamine H1 receptor (Homo sapiens) (P35367 whole entry): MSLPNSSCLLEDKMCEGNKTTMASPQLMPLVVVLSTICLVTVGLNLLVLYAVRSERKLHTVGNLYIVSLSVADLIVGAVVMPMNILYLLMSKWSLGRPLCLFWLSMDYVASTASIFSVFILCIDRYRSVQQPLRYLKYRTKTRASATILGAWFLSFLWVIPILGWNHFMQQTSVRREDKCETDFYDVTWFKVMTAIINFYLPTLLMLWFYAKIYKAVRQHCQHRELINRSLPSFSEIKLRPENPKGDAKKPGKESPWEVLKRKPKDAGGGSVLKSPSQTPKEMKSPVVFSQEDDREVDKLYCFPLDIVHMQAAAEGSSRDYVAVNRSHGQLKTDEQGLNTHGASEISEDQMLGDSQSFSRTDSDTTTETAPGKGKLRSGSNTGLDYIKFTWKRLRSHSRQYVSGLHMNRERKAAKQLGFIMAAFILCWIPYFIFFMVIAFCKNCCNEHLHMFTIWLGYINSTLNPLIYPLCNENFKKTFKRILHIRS

[24] = target: T1, 5-hydroxytryptamine receptor 1A (Homo sapiens) (UniProt P08908); test: Binding affinity to 5HT1A receptor at 3.16 uM
T1 sequence (whole entry): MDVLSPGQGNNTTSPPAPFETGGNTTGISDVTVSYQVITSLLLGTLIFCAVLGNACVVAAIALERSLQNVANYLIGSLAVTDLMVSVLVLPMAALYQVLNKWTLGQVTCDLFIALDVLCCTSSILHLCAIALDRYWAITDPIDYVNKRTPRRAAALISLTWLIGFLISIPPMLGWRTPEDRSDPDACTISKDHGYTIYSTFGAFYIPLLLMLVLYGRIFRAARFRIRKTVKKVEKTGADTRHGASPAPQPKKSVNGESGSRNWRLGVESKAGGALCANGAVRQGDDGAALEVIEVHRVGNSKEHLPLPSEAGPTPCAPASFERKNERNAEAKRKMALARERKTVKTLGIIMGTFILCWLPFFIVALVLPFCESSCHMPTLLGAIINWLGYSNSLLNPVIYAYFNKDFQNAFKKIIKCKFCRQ

[25] = target: hERG (KCNH2) (Homo sapiens, UniProt Q12809); test: Binding affinity to human ERG at 3.16 uM
[26] = target: D(2) dopamine receptor (Homo sapiens, UniProt P14416); test: Antagonist activity at human dopamine D2 receptor expressed in CHO cells assessed as inhibition of quinpirole-induced effect; assay type: functional, cell-based
[27] = target: 5-hydroxytryptamine receptor 2B (Homo sapiens) (UniProt P41595); test: Binding affinity to 5HT2B receptor at 3.16 uM
Sequence of 5-hydroxytryptamine receptor 2B (Homo sapiens) (P41595 whole entry): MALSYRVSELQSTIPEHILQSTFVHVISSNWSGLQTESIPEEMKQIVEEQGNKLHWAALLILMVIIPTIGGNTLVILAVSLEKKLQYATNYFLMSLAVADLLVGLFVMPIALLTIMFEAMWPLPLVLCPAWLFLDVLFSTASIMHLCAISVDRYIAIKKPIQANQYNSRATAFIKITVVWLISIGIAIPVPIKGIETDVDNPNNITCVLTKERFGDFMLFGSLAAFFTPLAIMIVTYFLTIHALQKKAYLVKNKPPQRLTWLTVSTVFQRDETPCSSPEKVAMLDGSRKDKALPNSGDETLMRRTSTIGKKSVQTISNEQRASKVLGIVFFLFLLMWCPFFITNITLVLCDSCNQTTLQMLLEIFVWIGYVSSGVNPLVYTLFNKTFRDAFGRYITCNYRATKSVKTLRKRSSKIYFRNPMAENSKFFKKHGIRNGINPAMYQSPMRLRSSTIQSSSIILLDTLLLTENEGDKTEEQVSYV

[28] = target: T2, Muscarinic acetylcholine receptor M1 (Homo sapiens) (UniProt P11229); test: Binding affinity to muscarinic M1 receptor at 3.16 uM
T2 sequence (whole entry): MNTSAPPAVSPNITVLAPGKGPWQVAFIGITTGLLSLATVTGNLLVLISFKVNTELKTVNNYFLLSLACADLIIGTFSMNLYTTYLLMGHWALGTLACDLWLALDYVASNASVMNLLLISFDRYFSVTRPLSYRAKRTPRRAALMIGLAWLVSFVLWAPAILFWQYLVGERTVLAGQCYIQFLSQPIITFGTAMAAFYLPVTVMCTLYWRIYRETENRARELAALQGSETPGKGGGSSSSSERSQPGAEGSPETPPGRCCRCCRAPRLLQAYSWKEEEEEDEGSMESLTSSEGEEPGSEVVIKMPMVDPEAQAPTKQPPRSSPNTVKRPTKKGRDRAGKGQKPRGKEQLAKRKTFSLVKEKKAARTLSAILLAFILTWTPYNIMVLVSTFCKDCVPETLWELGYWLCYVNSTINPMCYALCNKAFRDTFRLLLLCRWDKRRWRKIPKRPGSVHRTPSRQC

[29] = target: T3, Alpha-2A adrenergic receptor (Homo sapiens) (UniProt P08913); test: Binding affinity to adrenergic alpha2A receptor at 3.16 uM
T3 sequence (whole entry): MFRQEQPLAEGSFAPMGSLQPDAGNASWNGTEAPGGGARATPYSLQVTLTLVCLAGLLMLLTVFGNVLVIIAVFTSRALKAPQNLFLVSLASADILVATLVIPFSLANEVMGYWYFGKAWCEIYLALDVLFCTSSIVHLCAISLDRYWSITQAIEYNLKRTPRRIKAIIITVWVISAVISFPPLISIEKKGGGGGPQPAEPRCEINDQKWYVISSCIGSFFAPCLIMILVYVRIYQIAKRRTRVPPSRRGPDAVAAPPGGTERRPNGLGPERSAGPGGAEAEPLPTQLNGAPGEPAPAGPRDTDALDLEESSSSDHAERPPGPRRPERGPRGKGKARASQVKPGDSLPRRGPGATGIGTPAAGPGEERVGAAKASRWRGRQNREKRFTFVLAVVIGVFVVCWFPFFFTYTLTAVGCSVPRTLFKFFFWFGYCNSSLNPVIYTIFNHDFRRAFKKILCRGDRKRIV

[30] = target: 5-hydroxytryptamine receptor 2A (Homo sapiens) (UniProt P28223); test: Binding affinity to 5HT2A receptor at 3.16 uM

Sequence of Metabotropic glutamate receptor 2 (Rattus norvegicus, UniProt P31421) (P31421 whole entry): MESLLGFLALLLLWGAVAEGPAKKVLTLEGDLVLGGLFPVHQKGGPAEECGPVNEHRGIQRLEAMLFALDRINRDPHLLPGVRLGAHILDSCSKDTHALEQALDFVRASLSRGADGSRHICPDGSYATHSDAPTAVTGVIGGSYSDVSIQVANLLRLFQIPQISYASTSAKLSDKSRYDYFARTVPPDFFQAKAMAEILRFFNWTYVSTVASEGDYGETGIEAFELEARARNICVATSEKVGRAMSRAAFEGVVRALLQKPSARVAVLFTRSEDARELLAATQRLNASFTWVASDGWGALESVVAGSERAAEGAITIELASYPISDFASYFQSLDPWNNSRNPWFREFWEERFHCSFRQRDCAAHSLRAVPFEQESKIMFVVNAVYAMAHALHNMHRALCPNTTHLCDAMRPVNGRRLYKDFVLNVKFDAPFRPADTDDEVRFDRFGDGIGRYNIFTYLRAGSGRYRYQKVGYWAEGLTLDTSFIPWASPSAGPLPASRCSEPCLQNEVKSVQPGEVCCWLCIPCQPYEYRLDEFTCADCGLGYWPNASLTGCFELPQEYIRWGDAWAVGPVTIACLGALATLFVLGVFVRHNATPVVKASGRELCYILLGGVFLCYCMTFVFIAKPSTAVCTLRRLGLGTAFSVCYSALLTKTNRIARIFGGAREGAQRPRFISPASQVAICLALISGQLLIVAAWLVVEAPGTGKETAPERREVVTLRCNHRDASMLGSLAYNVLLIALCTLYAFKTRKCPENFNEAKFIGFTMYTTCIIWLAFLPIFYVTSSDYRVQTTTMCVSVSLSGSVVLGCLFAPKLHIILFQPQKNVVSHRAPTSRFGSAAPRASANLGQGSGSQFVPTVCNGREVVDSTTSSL

## Cn1c(CN2CCC(c3ccc(Cl)cc3F)CC2)nc2ccccc21
[1]
  pEC50: 8.12

## C[C@H]1CN(Cc2nc3ncccc3n2C)CC[C@H]1c1ccc(OC(F)(F)F)cc1F
[2]
  inhibition: Dose-dependent effect
[2]; read-out: MED
  minimal effective dose: 10 mg/kg
[3]
  Activity: inactive
[4]
  inhibition: Dose-dependent effect
[4]; 1 h, read-out: MED
  minimal effective dose: 17.8 mg/kg
[5]
  Kp at 1 h: 4
[6]
  bioavailability: 50%
[7]
  Papp A→B at 1 µM: 14 ×10⁻⁶ cm/s
[8]
  Cmax: 1070 nM
[9]
  Kp at 1 h: 1.2
[10]
  Fu: 0.3%
[11]
  clearance: 4.5 mL/min/kg
[12]
  pKi: < 5.33
[13]
  Activity: inactive
[14]
  Activity: inactive
[15]
  Activity: inactive
[16]
  Activity: inactive

## Cn1c(CN2CC[C@@H](c3ccc(C(F)(F)F)cc3)C(C)(C)C2)nc2ncccc21
[1]
  pEC50: 6.13
[12]
  pKi: < 5.55

## Cn1c(CN2CCC(c3ccccc3F)CC2)nc2ccccc21
[1]
  pEC50: 7.66

## Cn1c(CN2CCC(c3cccc(F)c3)CC2)nc2ccccc21
[1]
  pEC50: 5.48

## Cn1c(CN2CCC(c3ccc(C(F)(F)F)cc3F)CC2)nc2ncccc21
[1]
  pEC50: 7.60
[12]
  pKi: 5.75

## CNC(=O)c1cccc(C2CCN(Cc3nc4ccccc4n3C)CC2)c1
[1]
  pEC50: < 5.00

## COc1ccccc1N1CCN(Cc2c(Br)c(=O)n(-c3ccccc3)n2C)CC1
[1]
  pEC50: 6.05

## Cc1cc(C2CCN(Cc3nc4ccccc4n3C)CC2)nc(N2CCCC2)n1
[1]
  pEC50: 5.32

## C[C@H]1CN(Cc2nc3ncccc3n2C)CC[C@H]1c1ccc(C(F)(F)F)cc1F
[17]
  Ratio: 1.7
[3]
  Activity: inactive
[1]
  pEC50: 8.05
[5]
  Kp at 1 h: 7
[18]
  Cmax: 3120 nM
[7]
  Papp A→B at 1 µM: 26 ×10⁻⁶ cm/s
[19]
  Ratio: > 584
[9]
  Kp at 1 h: 1.9
[10]
  Fu: 0.5%
[20]
  clearance: 7.5 mL/min/kg
[21]
  pEC50: 8.52
[12]
  pKi: < 5.28
[13]
  Activity: inactive
[14]
  Activity: inactive
[15]
  Activity: inactive
[22]
  bioavailability: 74%
[16]
  Activity: inactive

## C[C@@H]1CN(Cc2nc3ncccc3n2C)CC[C@@H]1c1ccc(C(F)(F)F)cc1
[1]
  pEC50: < 5.70
[12]
  pKi: < 5.55

## Cn1c(CN2[C@@H]3CC[C@H]2CC(c2ccc(C(F)(F)F)cc2)C3)nc2ncccc21 (stereo partly specified)
[1]
  pEC50: 6.74
[12]
  pKi: 6.45

## COc1cc(C(F)(F)F)ccc1[C@H]1CCN(Cc2nc3ncccc3n2C)C[C@H]1C
[1]
  pEC50: 6.10

## Cn1c(CN2CCC(c3ccc(C(F)(F)F)cc3)C(O)C2)nc2ncccc21 (trans isomer)
[1]
  pEC50: < 5.00

## C[C@H]1CN(Cc2nc3ncccc3n2C)CC[C@H]1c1ccc(Cl)cc1F
[1]
  pEC50: 7.55
[12]
  pKi: 5.79

## COc1ccccc1C1CCN(Cc2nc3ccccc3n2C)CC1
[17]
  Ratio: 1.28
[23]
  inhibition: < 50%
[24]
  inhibition: < 50%
[25]
  inhibition at 3.16 µM: < 50%
[3]
  Activity: inactive
[1]
  pEC50: 7.06
[26]
  pEC50: 6.02
[7]
  Papp A→B at 1 µM: 25.8 ×10⁻⁶ cm/s
[27]
  inhibition: < 50%
[28]
  inhibition: < 50%
[12]
  pKi: 6.37
[29]
  inhibition: < 50%
[13]
  Activity: inactive
[14]
  Activity: inactive
[15]
  Activity: inactive
[30]
  inhibition: < 50%
[16]
  Activity: inactive

## Cn1c(CN2CCC(c3ccc(OC(F)(F)F)cc3F)CC2)nc2ncccc21
[1]
  pEC50: 7.60
[12]
  pKi: 5.93

— ChEMBL document CHEMBL1773004, “1-[(1-methyl-1H-imidazol-2-yl)methyl]-4-phenylpiperidines as mGluR2 positive allosteric modulators for the treatment of psychosis” (J Med Chem, 2011)
